What all share (test): Enzyme Assay
In assay [1] the target is PIK3CB (Human) (UniProt P42338).
Assay [2] has as its target PIK3CD (Human) (UniProt O00329).
The target in assay [3] is PIK3CG (human) (UniProt P48736).
Chain of PIK3CG (human) (P48736 whole entry, looked up): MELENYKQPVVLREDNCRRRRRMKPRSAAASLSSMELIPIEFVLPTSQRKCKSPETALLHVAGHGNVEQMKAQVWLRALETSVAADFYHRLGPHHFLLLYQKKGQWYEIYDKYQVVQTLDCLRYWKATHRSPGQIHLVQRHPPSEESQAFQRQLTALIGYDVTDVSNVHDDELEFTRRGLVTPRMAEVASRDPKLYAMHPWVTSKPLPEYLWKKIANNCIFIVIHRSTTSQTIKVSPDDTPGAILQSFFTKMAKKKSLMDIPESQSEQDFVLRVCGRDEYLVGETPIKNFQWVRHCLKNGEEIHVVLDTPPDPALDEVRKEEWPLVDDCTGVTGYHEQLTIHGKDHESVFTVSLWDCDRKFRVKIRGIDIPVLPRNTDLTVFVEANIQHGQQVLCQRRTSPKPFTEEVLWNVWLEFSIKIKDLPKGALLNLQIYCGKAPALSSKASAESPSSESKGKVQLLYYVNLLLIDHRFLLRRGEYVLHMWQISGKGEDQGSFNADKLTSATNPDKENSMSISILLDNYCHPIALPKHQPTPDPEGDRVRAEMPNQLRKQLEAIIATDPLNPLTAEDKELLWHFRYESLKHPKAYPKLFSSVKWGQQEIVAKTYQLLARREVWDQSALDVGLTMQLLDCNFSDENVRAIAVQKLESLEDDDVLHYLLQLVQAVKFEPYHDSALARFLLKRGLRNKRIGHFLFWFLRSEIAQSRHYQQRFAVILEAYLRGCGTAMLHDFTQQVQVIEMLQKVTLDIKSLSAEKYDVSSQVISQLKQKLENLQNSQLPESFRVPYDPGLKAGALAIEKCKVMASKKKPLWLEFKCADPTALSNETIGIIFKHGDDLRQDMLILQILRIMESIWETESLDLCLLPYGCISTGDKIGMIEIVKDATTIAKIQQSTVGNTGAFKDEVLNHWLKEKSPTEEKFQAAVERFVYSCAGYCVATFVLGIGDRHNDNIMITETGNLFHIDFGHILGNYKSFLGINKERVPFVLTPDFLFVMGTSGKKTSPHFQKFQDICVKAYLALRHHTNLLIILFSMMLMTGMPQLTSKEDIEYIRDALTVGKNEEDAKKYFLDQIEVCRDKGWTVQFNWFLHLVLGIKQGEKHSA

Chain of PIK3CD (Human) (O00329 whole entry, looked up): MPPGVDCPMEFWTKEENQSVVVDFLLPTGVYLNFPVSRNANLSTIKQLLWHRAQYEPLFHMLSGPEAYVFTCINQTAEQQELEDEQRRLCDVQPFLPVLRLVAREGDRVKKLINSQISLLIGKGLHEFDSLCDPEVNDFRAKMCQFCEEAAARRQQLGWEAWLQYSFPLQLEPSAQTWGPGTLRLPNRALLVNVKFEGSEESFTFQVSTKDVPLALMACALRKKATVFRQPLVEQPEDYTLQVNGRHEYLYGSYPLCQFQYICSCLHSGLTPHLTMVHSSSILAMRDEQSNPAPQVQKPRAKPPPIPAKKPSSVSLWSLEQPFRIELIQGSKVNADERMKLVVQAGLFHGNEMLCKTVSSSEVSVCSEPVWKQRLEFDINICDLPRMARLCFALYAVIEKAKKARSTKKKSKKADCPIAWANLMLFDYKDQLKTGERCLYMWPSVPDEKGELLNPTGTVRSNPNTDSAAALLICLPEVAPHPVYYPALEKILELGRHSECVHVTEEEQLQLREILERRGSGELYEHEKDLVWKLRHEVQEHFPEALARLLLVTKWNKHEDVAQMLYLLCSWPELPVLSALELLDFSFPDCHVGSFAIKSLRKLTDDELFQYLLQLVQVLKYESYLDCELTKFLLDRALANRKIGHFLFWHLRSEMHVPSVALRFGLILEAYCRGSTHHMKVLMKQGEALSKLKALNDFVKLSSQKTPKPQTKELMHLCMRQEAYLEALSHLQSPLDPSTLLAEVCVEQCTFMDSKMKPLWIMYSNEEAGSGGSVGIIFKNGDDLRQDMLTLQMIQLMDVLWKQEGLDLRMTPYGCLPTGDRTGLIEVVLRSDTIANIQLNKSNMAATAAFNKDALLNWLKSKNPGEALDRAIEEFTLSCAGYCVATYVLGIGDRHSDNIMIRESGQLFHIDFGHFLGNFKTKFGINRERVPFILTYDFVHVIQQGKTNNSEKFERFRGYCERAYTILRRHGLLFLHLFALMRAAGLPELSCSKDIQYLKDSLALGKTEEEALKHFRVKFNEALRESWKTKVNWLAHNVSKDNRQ
Chain of PIK3CB (Human) (P42338 whole entry, looked up): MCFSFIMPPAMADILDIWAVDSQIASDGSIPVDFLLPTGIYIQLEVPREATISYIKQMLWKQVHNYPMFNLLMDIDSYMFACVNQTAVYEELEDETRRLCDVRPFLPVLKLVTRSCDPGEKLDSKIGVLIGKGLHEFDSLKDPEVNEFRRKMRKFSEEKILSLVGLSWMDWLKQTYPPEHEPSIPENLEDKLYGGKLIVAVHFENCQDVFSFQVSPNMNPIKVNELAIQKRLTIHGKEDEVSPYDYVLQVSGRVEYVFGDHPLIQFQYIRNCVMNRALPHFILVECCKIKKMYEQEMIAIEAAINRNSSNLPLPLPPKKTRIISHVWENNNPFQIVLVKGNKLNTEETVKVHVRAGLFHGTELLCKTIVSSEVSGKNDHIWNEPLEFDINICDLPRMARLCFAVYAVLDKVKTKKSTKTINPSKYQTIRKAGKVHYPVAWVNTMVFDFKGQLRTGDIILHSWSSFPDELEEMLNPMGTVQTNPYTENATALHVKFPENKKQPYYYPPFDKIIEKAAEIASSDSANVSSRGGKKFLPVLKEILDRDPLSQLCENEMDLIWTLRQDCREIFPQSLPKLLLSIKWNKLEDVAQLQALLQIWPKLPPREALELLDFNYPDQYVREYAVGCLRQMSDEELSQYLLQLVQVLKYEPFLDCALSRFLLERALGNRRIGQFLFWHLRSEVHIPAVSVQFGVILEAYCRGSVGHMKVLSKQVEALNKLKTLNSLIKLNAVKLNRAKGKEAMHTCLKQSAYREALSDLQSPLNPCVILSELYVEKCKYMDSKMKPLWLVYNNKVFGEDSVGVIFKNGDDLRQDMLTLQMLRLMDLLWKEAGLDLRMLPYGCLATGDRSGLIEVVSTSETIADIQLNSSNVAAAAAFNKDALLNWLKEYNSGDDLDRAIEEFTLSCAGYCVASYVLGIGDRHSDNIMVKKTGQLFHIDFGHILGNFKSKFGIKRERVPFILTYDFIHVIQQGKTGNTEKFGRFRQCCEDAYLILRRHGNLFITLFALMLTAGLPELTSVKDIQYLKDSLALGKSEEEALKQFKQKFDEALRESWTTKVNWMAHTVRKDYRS

Regarding `N#Cc1c(N)nc(N)nc1N1CCC[C@H]1c1nc2c(Cl)ccc(Cl)c2c(=O)n1-c1cccc(C(N)=O)c1`, the IC50 (in general, the point on the concentration scale where inhibition reaches its midpoint) in assay [1] came to 0.051 µM; in assay [2], 0.002 µM; in assay [3] it was 1.4 µM.

Regarding `COCCNC(=O)Nc1cccc(-n2c([C@@H]3CCCN3c3ncnc(N)c3C#N)nc3cccc(Cl)c3c2=O)c1`, the IC50 was 0.097 µM in assay [1], 0.038 µM in assay [2] and 7.8 µM in assay [3].

On to `N#Cc1c(N)ncnc1N1CCC[C@H]1c1nc2cccc(Cl)c2c(=O)n1-c1cccc(NC(=O)Nc2ccccn2)c1`, for which the IC50 in assay [1] was determined as 0.42 µM; in assay [2], 0.049 µM; in assay [3] it was 7.4 µM.

Turning to `C[C@H](Nc1ncnc(N)c1C#N)c1nc2cccc(Cl)c2c(=O)n1-c1cccc(NC(=O)Nc2cccnc2C(F)(F)F)c1`, the IC50 in assay [1] is 0.023 µM; in assay [2], 0.011 µM; in assay [3], 3.9 µM.

Regarding `CCNC(=O)Nc1ccc(Cl)c(-n2c([C@H](C)Nc3ncnc(N)c3C#N)nc3cccc(Cl)c3c2=O)c1`, the IC50 in assay [3] is more than 10 µM.
